Laboratory results: the supplement of paper PMC7214452

Columns and labels:
Assay in all cases: normalized area under the dose-response curve (viability relative to DMSO control) (fraction); higher = less sensitive (more viable cells)
Details in all cases: exposure time not given
AMO1 (cancer type: MM) = test system: AMO1 (cancer type: MM)
Description: (§1)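 25 myeloma and 15 non-Hodgkin lymphoma cell lines were exposed to each of 76 drugs as 7-point log dilutions (0.01 nM–10 µM) in duplicate. Viability was read with CellTiter-Glo and normalised to DMSO (0.1%) and staurosporine (10 µM) plate controls. Normalised AUC was calculated by the trapezoidal method relative to the negative control.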

EJM (cancer type: MM) = test system: EJM (cancer type: MM)
Description: as §1

FR4 (cancer type: MM) = test system: FR4 (cancer type: MM)
Description: as §1

[1] = test system: Granta-519 (cancer type: Mantle)
Description: as §1

[2] = test system: HuT 78 (cancer type: TCL)
Description: as §1

JJN3 (cancer type: MM) = test system: JJN3 (cancer type: MM)
Description: as §1

[3] = test system: JVM2 (cancer type: Mantle)
Description: as §1

[4] = test system: JeKo-1 (cancer type: Mantle)
Description: as §1

KMS11 (cancer type: MM) = test system: KMS11 (cancer type: MM)
Description: as §1

[5] = test system: KMS12PE (cancer type: MM)
Description: as §1

KMS18 (cancer type: MM) = test system: KMS18 (cancer type: MM)
Description: as §1

KMS26 (cancer type: MM) = test system: KMS26 (cancer type: MM)
Description: as §1

[6] = test system: KMS28BM (cancer type: MM)
Description: as §1

[7] = test system: KMS28PE (cancer type: MM)
Description: as §1

KMS34 (cancer type: MM) = test system: KMS34 (cancer type: MM)
Description: as §1

[8] = test system: Karpas-299 (cancer type: TCL)
Description: as §1

L363 (cancer type: MM) = test system: L363 (cancer type: MM)
Description: as §1

LP1 (cancer type: MM) = test system: LP1 (cancer type: MM)
Description: as §1

MM1.R (cancer type: MM) = test system: MM1.R (cancer type: MM)
Description: as §1

MM1.S (cancer type: MM) = test system: MM1.S (cancer type: MM)
Description: as §1

[9] = test system: Mino (cancer type: Mantle)
Description: as §1

My-La (cancer type: TCL) = test system: My-La (cancer type: TCL)
Description: as §1

[10] = test system: NCI-H929 (cancer type: MM)
Description: as §1

[11] = test system: OCI-LY1 (cancer type: DLBCL)
Description: as §1

[12] = test system: OCI-LY19 (cancer type: DLBCL)
Description: as §1

[13] = test system: OCI-LY3 (cancer type: DLBCL)
Description: as §1

[14] = test system: OCI-MY5 (cancer type: MM)
Description: as §1

[15] = test system: OCI-MY5/CRBN (cancer type: MM)
Description: as §1

[16] = test system: OCI-MY5/Vec (cancer type: MM)
Description: as §1

[17] = test system: OCI-MY7 (cancer type: MM)
Description: as §1

OPM2 (cancer type: MM) = test system: OPM2 (cancer type: MM)
Description: as §1

[18] = test system: RPMI 8226 (cancer type: MM)
Description: as §1

SKMM2 (cancer type: MM) = test system: SKMM2 (cancer type: MM)
Description: as §1

[19] = test system: SR-786 (cancer type: TCL)
Description: as §1

[20] = test system: SU-DHL1 (cancer type: TCL)
Description: as §1

[21] = test system: SU-DHL2 (cancer type: DLBCL)
Description: as §1

[22] = test system: SU-DHL6 (cancer type: DLBCL)
Description: as §1

Se-Ax (cancer type: TCL) = test system: Se-Ax (cancer type: TCL)
Description: as §1

U266 (cancer type: MM) = test system: U266 (cancer type: MM)
Description: as §1

XG2 (cancer type: MM) = test system: XG2 (cancer type: MM)
Description: as §1

SMILES	normalized area under the dose-response curve (AMO1 (cancer type: MM))	normalized area under the dose-response curve (EJM (cancer type: MM))	normalized area under the dose-response curve (FR4 (cancer type: MM))	normalized area under the dose-response curve [1]	normalized area under the dose-response curve [2]	normalized area under the dose-response curve (JJN3 (cancer type: MM))	normalized area under the dose-response curve [3]	normalized area under the dose-response curve [4]	normalized area under the dose-response curve (KMS11 (cancer type: MM))	normalized area under the dose-response curve [5]	normalized area under the dose-response curve (KMS18 (cancer type: MM))	normalized area under the dose-response curve (KMS26 (cancer type: MM))	normalized area under the dose-response curve [6]	normalized area under the dose-response curve [7]	normalized area under the dose-response curve (KMS34 (cancer type: MM))	normalized area under the dose-response curve [8]	normalized area under the dose-response curve (L363 (cancer type: MM))	normalized area under the dose-response curve (LP1 (cancer type: MM))	normalized area under the dose-response curve (MM1.R (cancer type: MM))	normalized area under the dose-response curve (MM1.S (cancer type: MM))	normalized area under the dose-response curve [9]	normalized area under the dose-response curve (My-La (cancer type: TCL))	normalized area under the dose-response curve [10]	normalized area under the dose-response curve [11]	normalized area under the dose-response curve [12]	normalized area under the dose-response curve [13]	normalized area under the dose-response curve [14]	normalized area under the dose-response curve [15]	normalized area under the dose-response curve [16]	normalized area under the dose-response curve [17]	normalized area under the dose-response curve (OPM2 (cancer type: MM))	normalized area under the dose-response curve [18]	normalized area under the dose-response curve (SKMM2 (cancer type: MM))	normalized area under the dose-response curve [19]	normalized area under the dose-response curve [20]	normalized area under the dose-response curve [21]	normalized area under the dose-response curve [22]	normalized area under the dose-response curve (Se-Ax (cancer type: TCL))	normalized area under the dose-response curve (U266 (cancer type: MM))	normalized area under the dose-response curve (XG2 (cancer type: MM))
CNC(=O)c1cc(Oc2ccc(NC(=O)Nc3ccc(Cl)c(C(F)(F)F)c3)c(F)c2)ccn1 [Regorafenib]	0.549	0.589	0.642	0.901	0.697	0.436	0.715	0.879	0.546	0.62	0.553	0.844	0.565	0.695	0.35	0.892	0.54	0.558	0.53	0.52	0.899	0.84	0.56	1	0.96	0.964	0.468	0.927	0.848	0.58	0.594	0.543	0.636	0.91	0.57	0.955	0.916	0.684	0.48	0.481
C/C=C1\NC(=O)[C@H]2CSSCC/C=C/[C@H](CC(=O)N[C@H](C(C)C)C(=O)N2)OC(=O)[C@H](C(C)C)NC1=O [Romidepsin]	0.224	0.105	0.152	0.209	0.0814	0.324	0.148	0.174	0.382	0.24	0.291	0.257	0.271	0.262	0.206	0.118	0.401	0.447	0.33	0.23	0.178	0.109	0.09	0.118	0.198	0.203	0.13	0.0857	0.143	0.5	0.445	0.433	0.511	0.148	0.113	0.188	0.385	0.107	0.21	0.15
N#CC[C@H](C1CCCC1)n1cc(-c2ncnc3[nH]ccc23)cn1 [Ruxolitinib]	0.911	0.886	0.927	0.925	0.853	0.894	0.774	1.01	0.87	0.91	0.978	0.802	0.913	0.879	0.708	0.742	0.863	0.861	0.85	0.91	0.983	0.775	0.91	0.997	0.972	0.944	0.853	0.993	0.898	0.89	0.931	0.997	0.958	0.83	0.713	0.959	0.928	0.828	0.833	0.804
O=C(/C=C\n1cnc(-c2cc(C(F)(F)F)cc(C(F)(F)F)c2)n1)NNc1cnccn1 [Selinexor]	0.182	0.389	0.703	0.705	0.227	0.468	0.407	0.43	0.126	0.47	0.446	0.42	0.62	0.41	0.313	0.553	0.153	0.446	0.23	0.18	0.507	0.469	0.25	0.634	0.38	0.643	0.151	0.105	0.0963	0.13	0.411	0.424	0.598	0.306	0.277	0.697	0.789	0.483	0.415	0.256
CNC(=O)c1cc(Oc2ccc(NC(=O)Nc3ccc(Cl)c(C(F)(F)F)c3)cc2)ccn1 [Sorafenib]	0.578	0.663	0.594	0.877	0.704	0.435	0.747	0.922	0.535	0.6	0.471	0.634	0.611	0.752	0.239	0.812	0.578	0.495	0.61	0.57	0.872	0.836	0.57	0.913	0.873	0.955	0.459	0.589	0.499	0.59	0.539	0.546	0.56	0.824	0.576	0.901	0.937	0.655	0.45	0.543
CCN(CC)CCNC(=O)c1c(C)[nH]c(/C=C2\C(=O)Nc3ccc(F)cc32)c1C [Sunitinib]	0.519	0.587	0.681	0.863	0.536	0.638	0.605	0.729	0.641	0.7	0.665	0.714	0.739	0.519	0.459	0.722	0.648	0.651	0.61	0.58	0.761	0.772	0.56	0.818	0.794	0.892	0.576	0.816	0.82	0.72	0.56	0.538	0.734	0.652	0.541	0.8	0.875	0.69	0.698	0.46
CO[C@H]1C[C@@H]2CC[C@@H](C)[C@@](O)(O2)C(=O)C(=O)N2CCCC[C@H]2C(=O)O[C@H]([C@H](C)C[C@@H]2CC[C@@H](OC(=O)C(C)(CO)CO)[C@H](OC)C2)CC(=O)[C@H](C)/C=C(\C)[C@@H](O)[C@@H](OC)C(=O)[C@H](C)C[C@H](C)/C=C/C=C/C=C/1C [Temsirolimus]	0.695	0.823	0.789	0.695	0.722	0.774	0.559	0.744	0.752	0.69	0.754	0.978	0.859	0.696	0.559	0.585	0.7	0.746	0.68	0.63	0.691	0.764	0.74	0.685	0.697	0.648	0.775	0.772	0.884	0.79	0.749	0.763	0.912	0.745	0.71	0.576	0.72	0.663	0.752	0.725
C[C@@H]1CCN(C(=O)CC#N)C[C@@H]1N(C)c1ncnc2[nH]ccc12 [Tofacitinib]	0.901	0.941	1	0.94	0.879	0.966	0.931	1.05	0.933	1.01	1.01	0.957	0.962	0.936	0.89	0.891	0.904	0.858	0.92	0.85	0.957	0.877	0.92	0.994	0.996	0.952	0.944	0.97	1.02	0.95	0.938	1	0.978	0.856	0.97	0.93	0.969	0.929	0.874	0.838
